From publication PMC5585294, “A potent series targeting the malarial cGMP-dependent protein kinase clears infection and blocks transmission” (Nature Communications, 2017)
pIC50: −log10 of the molar value.

Tests used:
[1] = Stability in mouse liver microsomes; conditions: mouse, microsomes, 0.5 h
Method: (§1) Compound mlm hlm mLogD PAMPA HepG2 name (%rem) (%rem) (nm/s) (IC50 µM)
(§2) Supplementary Table 2. Compound Properties. MLM, HLM, mLogD and PAMPA . mlm (%rem): % of compound remaining after 30 minutes’ incubation with mouse liver microsomes; hlm (%rem): % of compound remaining after 40 minutes’ incubation with human liver microsomes; mLogD: measured LogD at pH 7.4; PAMPA: parallel artificial membrane permeability assay; HepG2: Cytotoxicity assay using HepG2 cells; n.t.: not tested.

[2] = test system: P. falciparum (NF54) gametocytes; assay: Standard membrane feeding assay (SMFA), gametocytes fed to Anopheles stephensi; assay type: cell-based, Plasmodium falciparum; conditions: Plasmodium falciparum, NF54; gametocytes pre-incubated 24 h, oocysts counted day 7 post-feed; read-out: IC50 for reduction of the intensity of infection (oocysts)
Method: Mature P. falciparum (NF54) gametocytes (14 day culture, 0.3–0.5% gametocytes, 2% haematocrit) were obtained from an automated tipper system and incubated with compound for 24 h as previously described. Anopheles stephensi (Sind-Kasur Nijmegen strain[39] were reared at 30 °C and 70–80% humidity, while exposed to a 12/12 h day/night cycle. On the day of feeding, the gametocyte culture was adjusted to 50% hematocrit with human red blood cells and human serum and fed to 3–5 day old mosquitoes using a glass membrane mini-feeder system containing 0.35 ml of the P. falciparum culture/compound mix[40]. Unfed and partially fed mosquitoes were removed after feeding and blood fed females were maintained at 26 °C and 70–80% humidity. Up to 20 surviving mosquitoes were collected on day 7 post-infection and oocysts were visualized using a 1% merchurochrome solution and quantified by microscopy. IC50 values were determined by logistic regression using Maximum Likelihood Estimation to find best fit[41].

P. chabaudi (AS) = assay: Synchronous P. chabaudi AS model in BALB/c mice; assay type: in vivo, Plasmodium chabaudi; conditions: 4 days
Method: Similar experiments were performed using P. chabaudi AS (from David Walliker, University of Edinburgh) with the following modifications. To allow dosing to be carried out more conveniently during the day, reversal of the light/dark exposure of mice for 2 weeks prior to the experiment was used to switch schizogony from midnight to noon each day. Mice were dosed at different time points in an attempt to have maximal coverage at the point of schizogony. All animal work protocols carried out at LSHTM were approved and licensed by the United Kingdom Home Office as governed by law under the Animals (Scientific Procedures) Act of 1986, in strict accordance with the Code of Practice Part 1 for the housing and care of animals (21 March 2005), available at http://www.homeoffice.gov.uk/science-research/animal-research/

[3] = Stability in human liver microsomes; conditions: human, microsomes, 40 min
Method: as §1, §2

## Cc1cn2c(-c3ccnc(NCC4CC4)n3)c(-c3ccc(F)c(NS(C)(=O)=O)c3)nc2cc1CN(C)C [ML10]
[1]
  mlm (%rem): 59%
[2]
  pIC50: 7.38
P. chabaudi (AS); single daily oral dose 50 mg/kg just prior to schizogony
  reduction in blood stage parasitaemia: 60.9%
P. chabaudi (AS); twice daily oral dose 50 mg/kg (3 h apart)
  reduction in blood stage parasitaemia (mean): 97.8%
[3]
  hlm (%rem): 61%
